The test system of one series is aspergillus flavous. The series can be described thus: microbe, parasite or virus in culture. In kind it is cell-based. How it is done:
(§1) • (1) Test strains: monilia albicans (candida albicans), candida glabrata, candida krusei, candida tropicalis, aspergillus fumigatus and flavous. Antimicrobial peptides PL-13 (SEQ ID NO: 1) under test are supplied by Jiangsu ProteLight Pharmaceutical & Biotechnology Co., LTD. […] Activation of bacterial strains is conducted at a humidity level of 60% and 25° C. (for aspergillus) or 37° C. (for candida). (2) 0.9% stroke-physiological saline solution comprising 0.5% Tween-80 is used to prepare bacterial suspension for experiment. Hemocytometer is utilized to adjust concentration of the bacterial suspension to 1-3×10^6 CFU/ml (0.5 McFarland units) to make stock solution in reserve at -20° C. During the sensitivity test, the RPMI-1640 liquid medium is diluted 1000 times to 1-3×10^3 CFU/ml. (3) The RPMI-1640 liquid is utilized as diluent to 10-fold dilute stock solution of peptides. […] The eleventh orifice is used as living control orifice, while the twelfth one as blank control. (4) The RPMI-1640 liquid is utilized as diluent to 10-fold dilute stock solution of FCZ and ICZ. […] Ditto for other operations.

Series [1] in a line: Circular dichroism (CD) spectroscopy, helical structure. The series is classed as physicochemical. Particulars: for 50% TFE % helix / Benign buffer % helix: relative to ellipticity (100%) of reference peptide in 50% TFE. How it is done: The mean residue molar ellipticities of peptides are determined by circular dichroism (CD) spectroscopy, using a Jasco J-720 spectropolarimeter (Jasco, Easton, Md.), at 25° C. under benign conditions (50 mM KH2PO4/K2HPO4/100 mM KCl, pH7), as well as in the presence of an α-helix inducing solvent, 2,2,2-trifluoroethanol (TFE) (50 mM KH2PO4/K2HPO4/100 mM KCL, pH 7 buffer/50% TFE). A 10-fold dilution of a 500 μM stock solution of the peptide is loaded into a 0.02 cm fused silica cell and its mean residue molar ellipticity scanned from 190 to 250 nm. The values of mean residue molar ellipticities of the peptide at a wavelength of 222 nm are used to estimate the relative amount of α-helicity of the peptides.
To determine the secondary structure of peptides in different environments, circular dichroism (CD) spectra of the peptide analogs are measured under physiologically related pH and ionic strength (100 mM KCl, 50 mM aq. PO4, pH 7 referred to as benign conditions) and also in 50% TFE to mimic the hydrophobic environment of the membrane. CD spectra of the peptide analogs are measured under benign conditions (100 mM KCl, 50 mM KH2PO4/K2HPO4, pH 7, referred to as KP buffer) and also in 50% trifluoroethanol (TFE) to mimic the hydrophobic environment of the membrane. […] However, in the presence of 50% TFE, all three L-peptides are fully folded α-helical structures with similar molar ellipticities and helicity.
FIG. 2 illustrates graphical results of Circular dichroism (CD) spectra of peptides at pH 7.4 and 25° C., in 50 mM aq. PO4 containing 100 mM KCl, wherein KP buffer (50 mM KH2PO4, K2HPO4, 100 mM KCl, pH 7.4) mimics hydrophilic environment and KP buffer-TFE (1:1 [vol/vol]) mimics hydrophobic environment of cell membrane. The figure above represents the CD spectra of peptides in benign buffer without TFE, whilst the figure below represents CD spectra obtained in the presence of 50% TFE.

For the next series, the system named is candida albicans. The series can be described thus: microbe, parasite or virus in culture. In kind it is cell-based. How it is done: as §1
Series [2] can be described thus: RP-HPLC temperature profiling: hydrophobicity and self-association. In kind it is physicochemical. Particulars: for tR(min) 5° C. / tR(min) 80° C.: RP-HPLC temperature profiling; for PA (min), association parameter: maximal normalized retention time difference within 5-80° C., self-association ability; for tR(min) Max: maximal retention time during temperature profiling 5-80° C.; for ΔtR(X-Peptide C)(min) 5° C.: retention time difference to control peptide C at 5° C.; for ΔtR(X-Peptide C)(min) 5° C. / ΔtR(X-Peptide C)(min) 80° C.: relative hydrophobicity; for ΔtR(X-Peptide C)(min) 80° C.: retention time difference to control peptide C at 80° C.; for Hydrophobicity tR5: retention time in RP-HPLC at pH 2, 5° C.; for Hydrophobicity tR80: retention time in RP-HPLC at pH 2, 80° C. The procedure: Peptides are analyzed on an Agilent 1200 series liquid chromatograph (Little Falls, Del.). Runs are performed on a Zorbax 300 SB-C8 column (150×4.6 mm I.D.; 5 μm particle size, 300 Å pore size) from Agilent Technologies using linear AB gradient (1% acetonitrile/min) and a flow rate of 1 ml/min, where solvent A is 0.05% aqueous TFA, pH 2 and solvent B is 0.05% TFA in acetonitrile.
We further use temperature profiling during RP-HPLC to determine the self-association ability of various analogs of PL-13 (SEQ ID NO: 1) which would occur through interaction of the non-polar faces of these amphipathic peptides α-helices. We use 50% TFE aqueous acetonitrile and hydrophobic conditions in the reversed-phase column (hydrophobic stationary phase and the hydrophobic organic solvent in the mobile phase) since the hydrophobic environment of a reversed-phase column also could induce α-helical structure. Since its introduction, the technique of RP-HPLC temperature profiling has been applied on several types of molecules, including cyclic β-sheet peptides, monomeric α-helices and α-helices that dimerize, as well as α-helices that dimerize to form coiled-coils. Although peptides are eluted from a reversed-phase column mainly by an adsorption/desorption mechanism, even a peptide strongly bound to a hydrophobic stationary phase will partition between the matrix and the mobile phase when the acetonitrile content becomes high enough during gradient elution. In summary, the mechanism is based on four assumptions: (i) at low temperature, just as an amphipathic α-helical peptide is able to dimerize in aqueous solution (through its hydrophobic, non-polar face), it will dimerize in solution during partitioning in reversed-phase chromatography; (ii) at higher temperatures, the monomer-dimer equilibrium favors the monomer as the dimer is disrupted; (iii) at sufficiently high temperatures, only monomer is present in solution; and (iv) peptide is always bound in its monomeric helical form to the hydrophobic stationary phase, i.e., the dimer can only be present in solution and disruption of the dimer is required for rebinding to the RP-HPLC matrix.
([θ]222=−3,950). Since peptide C is a monomeric random coil peptide in both aqueous and hydrophobic media, its retention behavior over the temperature range 5-80° C. represents only general temperature effects on peptide retention behavior, i.e., a linear decrease in peptide retention time with increasing temperature due to greater solute diffusivity and enhanced mass transfer between the stationary and mobile phases at higher temperatures. Thus, after normalization to the retention times of peptide C, the retention behavior of the peptides only represents peptide self-association ability. Note that the higher the PA value, the greater the self-association ability. The order of peptide self-association ability of the three pairs of peptide enantiomers is identical to the order of peptide hydrophobicity. Apart from the decrease in retention time due to the general temperature effects noted above, destruction of the α-helix will also occur with increasing temperature, resulting in reduced retention times as the peptides become increasingly random coils.
The retention time data for the peptides is shown in Table 6 which records retention times at 5° C., the maximal retention times and retention times at 80° C. during the temperature profiling. Temperatures of 5-80° C. are the lower and upper temperature limits of temperature profiling in RP-HPLC, representing polymerization of the peptides at 5° C. and the monomerization of peptides at 80° C. due to denaturation of peptides by high temperature and dissociation of the polymers. The maximal retention times represent the threshold points at which peptides totally transform from polymeric to monomeric form. […]

A further series has as its system aspergillus fumigatus. As to the kind of experiment: microbe, parasite or virus in culture. In kind it is cell-based. How it is done: as §1
A further series has as its system candida glabrata. As to the kind of experiment: microbe, parasite or virus in culture. In kind it is cell-based. The procedure: as §1
For a further series, the system named is candida tropicalis. As to the kind of experiment: microbe, parasite or virus in culture. In kind it is cell-based. The procedure:
as §1

Values after ≈ are worked out from the molar mass of the structure shown. Non-standard residues stand in square brackets, D forms with d. Residues, ends and D or L forms follow the SMILES beside them.

Compound `CC(=O)N[C@H](Cc1ccccc1)C(=O)N[C@H](CCCCN)C(=O)N[C@H](CCCCN)C(=O)N[C@H](CC(C)C)C(=O)N[C@H](CCCCN)C(=O)N[C@H](CCCCN)C(=O)N[C@H](CC(C)C)C(=O)N[C@H](Cc1ccccc1)C(=O)N[C@H](CO)C(=O)N[C@H](CCCCN)C(=O)N[C@H](CC(C)C)C(=O)N[C@H](CC(C)C)C(=O)N[C@H](CC(N)=O)C(=O)N[C@H](CC(C)C)C(=O)N[C@H](CCCCN)C(N)=O` [PL-37] (Ac-[dF][dK][dK][dL][dK][dK][dL][dF][dS][dK][dL][dL][dN][dL][dK]-NH2) yielded a Minimal inhibitory concentration in the series on aspergillus flavous of over 64 µg/mL.
In the case of `CC(=O)N[C@H](CCCCN)C(=O)N[C@H](CC(C)C)C(=O)N[C@H](CCCCN)C(=O)N[C@H](CCCCN)C(=O)N[C@H](CC(C)C)C(=O)N[C@H](Cc1ccccc1)C(=O)N[C@H](CO)C(=O)N[C@H](CCCCN)C(=O)N[C@H](CC(C)C)C(=O)N[C@H](Cc1c[nH]c2ccccc12)C(=O)N[C@H](CC(N)=O)C(=O)N[C@H](Cc1c[nH]c2ccccc12)C(=O)N[C@H](CCCCN)C(N)=O` [PL-40] (Ac-[dK][dL][dK][dK][dL][dF][dS][dK][dL][dW][dN][dW][dK]-NH2; N-terminus and C-terminus assumed), in series [1], the “50% TFE % helix” value is 70.7% and the “Benign buffer % helix” value came out at 6.0%. Besides, the Minimal inhibitory concentration with aspergillus flavous was over 64 µg/mL. The Minimal inhibitory concentration in the series on candida albicans worked out at 16 µg/mL (≈ 9.09 µM). Also, in series [2], the “tR(min) 5° C.” value turned out to be 33.16 min; the “tR(min) 80° C.” value was found to be 30.94 min; the “PA (min), association parameter” value is 0.55 min; the “tR(min) Max” value is 33.16 min. For the same compound, in series [2], the “ΔtR(X-Peptide C)(min) 5° C.” value came to 10.60 min, the “ΔtR(X-Peptide C)(min) 80° C.” value was determined as 11.01 min, the “Hydrophobicity tR5” value is given as 33.16 min and the “Hydrophobicity tR80” value is given as 30.94 min.
For the compound `CC(=O)N[C@H](CC(C)C)C(=O)N[C@H](Cc1ccccc1)C(=O)N[C@H](CCCCN)C(=O)N[C@H](CCCCN)C(=O)N[C@H](CC(C)C)C(=O)N[C@H](CCCCN)C(=O)N[C@H](CCCCN)C(=O)N[C@H](CC(C)C)C(=O)N[C@H](Cc1ccccc1)C(=O)N[C@H](CO)C(=O)N[C@H](CCCCN)C(=O)N[C@H](CC(C)C)C(=O)N[C@H](Cc1c[nH]c2ccccc12)C(=O)N[C@H](CC(N)=O)C(=O)N[C@H](Cc1c[nH]c2ccccc12)C(=O)N[C@H](CCCCN)C(N)=O` [PL-51] (Ac-[dL][dF][dK][dK][dL][dK][dK][dL][dF][dS][dK][dL][dW][dN][dW][dK]-NH2; N-terminus and C-terminus assumed), in series [1], the “50% TFE % helix” value is recorded as 100.0% and the “Benign buffer % helix” value came to 16.8%. Also, the “50% TFE [θ]222” value in series [1] (mean residue molar ellipticity at 222 nm, 25° C., buffer containing 50% TFE) turned out to be 28200 deg · cm^2 · dmol^−1. This compound displayed a Minimal inhibitory concentration in the series on aspergillus flavous of over 64 µg/mL. In addition, in series [2], the “tR(min) 5° C.” value amounted to 42.59 min; the “tR(min) 80° C.” value was 41.35 min; the “PA (min), association parameter” value turned out to be 1.63 min; the “tR(min) Max” value was determined as 42.96 min. In series [2], the “ΔtR(X-Peptide C)(min) 5° C.” value is listed as 20.02 min, the “ΔtR(X-Peptide C)(min) 80° C.” value is listed as 21.42 min, the “Hydrophobicity tR5” value was found to be 42.59 min and the “Hydrophobicity tR80” value stood at 41.35 min.
Take “Ac-FKKFKKLLSKLWNWK-NH2 (N-terminus and C-terminus assumed) [PL-32]”: the Minimal inhibitory concentration in the series on aspergillus fumigatus is 64 µg/mL; in the series on aspergillus flavous it was over 64 µg/mL; with candida glabrata, 32 µg/mL.
Turning to “Ac-FKKLKKKFSKLWNWK-NH2 (N-terminus and C-terminus assumed) [PL-23]”, the Minimal inhibitory concentration was 64 µg/mL with aspergillus fumigatus, over 64 µg/mL in the series with aspergillus flavous, 16 µg/mL with candida albicans and 32 µg/mL in the series on candida glabrata.
“Ac-FKKLKKLFSKLWNWKK-NH2 (N-terminus and C-terminus assumed) [PL-48]”: the Minimal inhibitory concentration is 32 µg/mL in the series with aspergillus fumigatus, over 64 µg/mL in the series with aspergillus flavous and 8 µg/mL with candida tropicalis.
“Ac-KKLKKLFSKLWNW-NH2 (N-terminus and C-terminus assumed) [PL-30]”: the Minimal inhibitory concentration in the series on aspergillus flavous was over 64 µg/mL; in the series with candida albicans, 16 µg/mL; with candida glabrata, 32 µg/mL.

These data come from patent US9273095B2, “Antibiotic peptide and preparation method therefor and application therefor” (priority 2011, dated 2016).
